According to patent US20210388022A1, “SUBSTITUTED GUANIDINO AND AMIDINO REAGENTS AND THE USE THEREOF FOR PROTEIN DENATURATION” (Waters Technologies Corporation, priority 2020, published 2021):
Where a name gives a salt, the structure may show the parent alone.

Key:
[1] = test system: Polyclonal rabbit IgG (rIgG); experiment: Native fluorescence assay of rabbit IgG denaturation (ex 280 nm, emission ratio 376/360 nm); assay type: biochemical; conditions: for denaturing power (in words): 5 mM concentration and lower temperatures
Description: To determine the effectiveness of the guanidine and amidine reagents from the table of FIG. 8, a native fluorescence assay was established using rabbit IgG. Upon excitation at 280 nm, emission was measured ratiometrically at two wavelengths 376 and 360 nm.
Fluorescence spectra were acquired at an excitation wavelength of 280 nm and emission intensity is reported as a ratio of 376 nm intensity divided by 360 nm intensity. An increase in 1376/1360 denotes a change in the microenvironment of tryptophan residues—specifically, their change from a hydrophobically surrounded native state to a solvent exposed denatured state.
The IgG sample was subjected to concentrations of 0.5, 5, and 50 mM and temperatures of either ambient, 50° C., 70° C., or 90° C. […] Fluorescence was performed with an excitation wavelength of 280 nm.
Polyclonal rabbit IgG (rIgG) was used as a test protein to evaluate the denaturation power of various reagents. The rIgG protein was dissolved and diluted to a concentration of 0.25 mg/mL with water, while also being subjected to the chemical compound of interest and an incubation at either room temperature, 50° C., 70° C., or 90° C. To generate a positive control for complete denaturation, the rIgG sample was subjected to room temperature incubations with guanidine hydrochloride at 0 and up to 8M concentrations. Native fluorescence of the resulting sample was thereafter measured using an excitation wavelength of 280 nm. Emission intensities at 376 and 360 nm were subsequently detected and reported as a ratio as a sensitive measure of rIgG denaturation and a change in the local environment of tryptophan residues.
Fluorescence intensity ratios obtained after incubation with reagent #1, reagent #2, and reagent #3 and either ambient, 50° C., 70° C., or 90° C. temperatures are provided in FIG. 3. Likewise, fluorescence intensity ratios obtained after incubation with reagent #4, reagent #5, and reagent #6 and either ambient, 50° C., 70° C., or 90° C. temperatures are provided in FIG. 4. In all experiments, the substituted guanidine and amidines were titrated to a neutral pH and their protonated ionization states prior to being incubated with protein sample.

[2] = molecular target: T1, Orencia® (abatacept), a glycosylated fusion protein (Homo sapiens, UniProt P16410, C103S); experiment: Denaturation then PNGase F deglycosylation of abatacept, intact protein RPLC-MS; assay type: biochemical; conditions: 5 mM reagent, short 90° C. incubation, no desalting, PNGase F at 50° C.
T1 construct: modified human IgG1 Fc (hinge-CH2-CH3) fusion partner; purchased Bristol-Myers Squibb
T1 sequence (P16410 with tags, fused parts or gaps limits assumed, stated change not applied): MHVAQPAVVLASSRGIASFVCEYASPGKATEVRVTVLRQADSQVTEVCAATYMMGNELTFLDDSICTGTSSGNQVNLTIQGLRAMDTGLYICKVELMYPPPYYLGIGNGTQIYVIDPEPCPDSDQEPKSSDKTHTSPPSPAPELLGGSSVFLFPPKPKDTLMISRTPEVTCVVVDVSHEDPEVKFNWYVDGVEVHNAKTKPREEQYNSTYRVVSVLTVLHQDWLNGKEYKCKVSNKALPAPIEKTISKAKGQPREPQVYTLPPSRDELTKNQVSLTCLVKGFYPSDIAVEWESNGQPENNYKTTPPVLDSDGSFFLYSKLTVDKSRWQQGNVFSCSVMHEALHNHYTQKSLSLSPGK
Description: An Orencia® stock solution (20 mg/mL) was diluted 10 times with water to a concentration of 2 mg/mL, followed by the addition of 10 μL diluted sample into three 1 mL polypropylene tubes. Four (4) μL of 50 mM guanidino reagents, tetramethylguanidine (reagent #1), t-butyl tetramethylguanidine (reagent #2), and trazabicyclodecene (reagent #3), were added into each tube, separately. Finally, 8 μL of 50 mM HEPES, pH 7.9 buffer was transferred into each tube along with 16.4 μL of water.
The contents of each well were subsequently mixed by aspiration. Each sample was then incubated at 90° C., 3 minutes for denaturation and then removed from the heating block to cool at room temperature for 3 minutes. Each denatured glycoprotein sample was treated with 1.6 μL of GlycoWorks Rapid PNGase F at 50° C. for 5 minutes. Aliquots containing 10 μL of each deglycosylated sample were submitted for intact protein analysis, while the remaining 30 μL samples were subjected to RapiFluor-MS™ labeling and released glycan analysis (see details in Example 3).
Additionally, two controls were applied. For a positive control (FIG. 5D), 5 μL of Orencia® stock solution was mixed with 45 μL of 8M guanidine hydrochloride at room temperature, followed by desalting with a Thermo Zeba spin column. The resulting, 10 μL desalted sample was mixed with 8 μL of 50 mM HEPES, pH 7.9, 20.4 μL of water and 1.6 μL of GlycoWorks Rapid PNGase F before being incubated at 50° C. for 5 min to perform deglycosylation. Ten (10) μL of this deglycosylated protein, as well as 10 μL of 2 mg/mL Orencia® solution without denaturation, were tested as positive and negative controls of intact protein analysis. LCMS settings and parameters used for intact protein analysis are listed below in Table 1.

Orencia® (abatacept) = molecular target: T2, Orencia® (abatacept) (Homo sapiens, UniProt P16410, C103S); experiment: N-glycan release and RapiFluor-MS labeling after denaturation, LC-FLR-MS profile; conditions: 5 mM tetramethylguanidine denatured Orencia®, no desalting
T2 construct: modified human IgG1 Fc (hinge-CH2-CH3) fusion partner; purchased Bristol-Myers Squibb
T2 sequence (P16410 with tags, fused parts or gaps limits assumed, stated change not applied): as above
Description: In the example of FIG. 6, abatacept was denatured with 5 mM tetramethylguanidine at a 90° C. and incubated at 50° C. with PNGase F. The resulting N-glycosylamines were there derivatized with RapiFluor-MS™ and cleaned up with solid phase extraction using a GlycoWorks RapiFluor-MS™ N-glycan kit (according to manufacturer recommendations; Waters Technologies Corporation, Milford, Mass.). RapiFluor-MS™ labeled N-glycans from this tetramethylguanidinium denatured sample were thereafter profiled by […].
Thirty (30) μL of deglycosylated protein was labeled with 12 μL of RapiFluor-MS™ solution (68.7 mg/mL in DMF) for 5 minutes at room temperature, followed by dilution with 358 μL of acetonitrile for SPE clean-up. The total of 400 μL mixed solution was transferred to a pre-conditioned HILIC μElution SPE plate staged for operation on a positive pressure manifold with 3 psi pressurization. Each sample was loaded onto the plate and then twice washed with 600 μL of 1:9:90 (v/v/v) formic acid/water/acetonitrile. Finally, released glycans were eluted from individual wells with three, 30 μL of 200 mM ammonium acetate in 5% acetonitrile. Eluate was collected and transferred in LC vials for analysis. LC-FLR-MS settings and parameters used in these experiments are listed below in Table 2.

| Compound | fluorescence intensity ratio of rIgG ([1]; 1% (w/v) RapiGest SF [~24 mM], suggests only partial denaturation) | denaturing power (in words) [1] | extent of PNGase F deglycosylation of abatacept after denaturation [2] | interference in LC-FLR-MS data of RapiFluor-MS labeled N-glycans (Orencia® (abatacept)) | fluorescence intensity ratio of rIgG ([1]; 8M guanidine, room temperature, native state rIgG approximately 1.3) |
| --- | --- | --- | --- | --- | --- |
| CCCCCCCCCCCC1(C)OCC(COCCCS(=O)(=O)[O-])O1.[Na+] (stereo not drawn) [RapiGest SF] | approximately 1.4 | – | – | – | – |
| CN(C)C(=N)N(C)C [Reagent 1, 1,1,3,3-tetramethylguanidine] | – | significantly reduced | as extensively deglycosylated as the guanidinium hydrochloride denatured controls | no significant interferences | – |
| CN(C)C(=NC(C)(C)C)N(C)C [Reagent 2, 2-tert-butyl-1,1,3,3-tetramethylguanidine] | – | significantly reduced | as extensively deglycosylated as the guanidinium hydrochloride denatured controls | – | – |
| C1CN=C2NCCCN2C1 [Reagent 3, 1,5,7-triazabicyclo[4.4.0]dec-5-ene] | – | significantly reduced | as extensively deglycosylated as the guanidinium hydrochloride denatured controls | – | – |
| N=C(N)N [guanidine, guanidine hydrochloride, reference compound] | – | – | – | – | approximately 1.6 |
